# pIC50: −log10 of the molar value.
# Target: T1, PIP4K2A (Homo sapiens, UniProt P48426)
# T1 sequence (P48426 1-406): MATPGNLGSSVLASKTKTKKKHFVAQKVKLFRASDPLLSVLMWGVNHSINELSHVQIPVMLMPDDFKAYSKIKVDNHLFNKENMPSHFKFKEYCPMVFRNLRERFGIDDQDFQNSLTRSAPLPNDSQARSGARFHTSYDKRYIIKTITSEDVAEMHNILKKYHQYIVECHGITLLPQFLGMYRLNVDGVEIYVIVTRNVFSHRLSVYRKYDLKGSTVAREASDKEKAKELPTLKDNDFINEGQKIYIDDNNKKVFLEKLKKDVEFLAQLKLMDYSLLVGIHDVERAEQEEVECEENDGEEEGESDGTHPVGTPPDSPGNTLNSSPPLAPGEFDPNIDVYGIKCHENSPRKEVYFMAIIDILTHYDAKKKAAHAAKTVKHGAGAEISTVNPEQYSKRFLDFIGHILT
# Test: Kinase Assay PIP4K2 A (Table 2)
# Type: biochemical
# Set-up: 4 nM PIP4K2A (full length protein, SignalChem); purchased SignalChem
# Conditions: compounds listed under IC50 bins
# Protocol: Dilution series of the compounds were prepared in DMSO at 100 times the final assay concentration (n1=n0/3 in 10 points). The compounds were further diluted to three times the assay concentration in assay buffer (20 mM MOPS pH 7.2, 25 mM magnesium chloride, 0.005% Tween 20). 6 μL of the diluted compounds were added to a 384 well assay plate followed by 9 μL of a mix consisting of 4 nM PIP4K2A (full length protein, SignalChem) and 100 μM PI(5)P diC8 (Tebu-Bio). Enzyme and compounds were pre-incubated at room temperature for 15 minutes.
# Then 3 μL of a solution containing 60 μM ATP (Promega) in assay buffer was added to the wells containing compound and enzyme and mixing was performed by pipetting several times. The reaction was incubated at room temperature for 1 h. Then 18 μL of ADP-Glo™ Reagent (Promega) was added to stop the kinase reaction and deplete the unconsumed ATP, mixing was performed by pipetting several times. The plate was incubated at room temperature for 40 minutes before addition of 36 μL of Kinase Detection Reagent (Promega) to convert ADP to ATP and introduce luciferase and luciferin to detect ATP. The reaction was incubated at room temperature for 40 minutes before the luminescence was measured in a in a Victor 3V 1420 multilabel counter (Perkin Elmer).
# Percent inhibition of the compounds as compared to dimethyl sulfoxide treated control samples was calculated. Compound concentration versus percent inhibition were fitted to generate IC50 values.
row,Compound,pIC50
1,"CN(C)C(=O)c1ccc(-c2ccc(Nc3cncc(C4(C#N)CC4)c3)nc2)cc1 [Example 40, 4-(6-((5-(1-cyanocyclopropyl)pyridin-3-yl)amino)pyridin-3-yl)-N,N-dimethylbenzamide]",7.00 to 8.00
2,"Cc1cc(-c2ccc(Nc3cccnc3)nc2)ccc1C(=O)N(C)C [Example 10, N,N,2-trimethyl-4-(6-(pyridin-3-ylamino)pyridin-3-yl)benzamide]",< 6.00
3,"CN(C)C(=O)c1ccc(-c2cnc(Nc3cncc(N4CCCC4=O)c3)cn2)cc1 [Example 19, N,N-dimethyl-4-(5-((5-(2-oxopyrrolidin-1-yl)pyridin-3-yl)amino)pyrazin-2-yl)benzamide]",6.00 to 7.00
4,"CN(C)C(=O)c1ccc(-c2ccc(Nc3cncc(C#N)c3)nc2)cc1 [Example 30, 4-(6-((5-cyanopyridin-3-yl)amino)pyridin-3-yl)-N,N-dimethylbenzamide]",6.00 to 7.00
5,"CN(C)C(=O)c1ccc(-c2cnc(Nc3cncc(N4CCCC4=O)c3)cn2)c(F)c1 [Example 21, 3-fluoro-N,N-dimethyl-4-(5-((5-(2-oxopyrrolidin-1-yl)pyridin-3-yl)amino)pyrazin-2-yl)benzamide]",6.00 to 7.00
6,"CN(C)C(=O)c1cc(F)c(-c2ccc(Nc3cncc(N4CCCC4=O)c3)nc2)cc1F [Example 14, 2,5-difluoro-N,N-dimethyl-4-(6-((5-(2-oxopyrrolidin-1-yl)pyridin-3-yl)amino)pyridin-3-yl)benzamide]",6.00 to 7.00
7,"CN(C)C(=O)c1ccc(-c2ccc(Nc3cccnc3)nc2)cc1 [Example 1, N,N-dimethyl-4-(6-(pyridin-3-ylamino)pyridin-3-yl)benzamide]",6.00 to 7.00
8,"Cc1ncccc1Nc1ccc(-c2ccc(C(=O)N(C)C)cc2)cn1 [Example 35, N,N-dimethyl-4-(6-((2-methylpyridin-3-yl)amino)pyridin-3-yl)benzamide]",< 6.00
9,"CN(C)C(=O)c1ccc(-c2ccc(Nc3cncc(N4CCCC4=O)c3)nc2)cc1 [Example 38, N,N-dimethyl-4-(6-((5-(2-oxopyrrolidin-1-yl)pyridin-3-yl)amino)pyridin-3-yl)benzamide]",7.00 to 8.00
10,"CN(C)C(=O)c1ccc(-c2ccc(Nc3cncnc3)nc2)cc1 [Example 32, N,N-dimethyl-4-(6-(pyrimidin-5-ylamino)pyridin-3-yl)benzamide]",6.00 to 7.00
11,"CN(C)C(=O)C#Cc1ccc(Nc2cccnc2)nc1 [Example 4, N,N-dimethyl-3-(6-(pyridin-3-ylamino)pyridin-3-yl)propiolamide]",< 6.00
12,"CC(=O)Nc1cncc(Nc2ccc(-c3ccc(C(=O)N(C)C)cc3)cn2)c1 [Example 31, 4-(6-((5-acetamidopyridin-3-yl)amino)pyridin-3-yl)-N,N-dimethylbenzamide]",7.00 to 8.00
13,"CN(C)C(=O)c1ccc(-c2ccc(Nc3cnc4ccn(S(C)(=O)=O)c4c3)nc2)cc1 [Example 42, N,N-dimethyl-4-(6-((1-(methylsulfonyl)-1H-pyrrolo[3,2-b]pyridin-6-yl)amino)pyridin-3-yl)benzamide]",7.00 to 8.00
14,"CC(C)N(c1cncc(Nc2ccc(-c3ccc(C(=O)N(C)C)cc3)cn2)c1)S(C)(=O)=O [Example 27, 4-(6-((5-(N-isopropylmethylsulfonamido)pyridin-3-yl)amino)pyridin-3-yl)-N,N-dimethylbenzamide]",6.00 to 7.00
15,"CC(C)S(=O)(=O)N(C)c1cncc(Nc2ccc(-c3ccc(C(=O)N(C)C)cc3)cn2)c1 [Example 26, N,N-dimethyl-4-(6-((5-(N-methylpropan-2-ylsulfonamido)pyridin-3-yl)amino)pyridin-3-yl)benzamide]",7.00 to 8.00
16,"Cc1ncc(Nc2ccc(-c3ccc(C(=O)N(C)C)cc3)cn2)cn1 [Example 33, N,N-dimethyl-4-(6-((2-methylpyrimidin-5-yl)amino)pyridin-3-yl)benzamide]",< 6.00
17,"CN(C)C(=O)c1ccc(-c2ccc(Nc3cncc(N(C4CC4)S(C)(=O)=O)c3)nc2)cc1 [Example 28, 4-(6-((5-(N-cyclopropylmethylsulfonamido)pyridin-3-yl)amino)pyridin-3-yl)-N,N-dimethylbenzamide]",7.00 to 8.00
18,"CN(C)C(=O)C1CC=C(c2ccc(Nc3cccnc3)nc2)CC1 (stereo not shown) [Example 6, N,N-dimethyl-4-(6-(pyridin-3-ylamino)pyridin-3-yl)cyclohex-3-ene-1-carboxamide]",< 6.00
19,"CN(C)C(=O)c1ccc(-c2ccc(Nc3cnccn3)nc2)cc1 [Example 36, N,N-dimethyl-4-(6-(pyrazin-2-ylamino)pyridin-3-yl)benzamide]",< 6.00
20,"CN(C)C(=O)c1ccc(-c2ccc(Nc3cncc(N(C)S(C)(=O)=O)c3)nc2)cc1 [Example 24, N,N-dimethyl-4-(6-((5-(N-methylmethylsulfonamido)pyridin-3-yl)amino)pyridin-3-yl)benzamide]",7.00 to 8.00
21,"CN(C)C(=O)c1ccc(-c2ccc(Nc3cncc(N4CCCC4=O)c3)nc2)c(F)c1 [Example 13, 3-fluoro-N,N-dimethyl-4-(6-((5-(2-oxopyrrolidin-1-yl)pyridin-3-yl)amino)pyridin-3-yl)benzamide]",7.00 to 8.00
22,"CN(C)C(=O)c1ccc(-c2ccc(Nc3cncc(N4CCCC4=O)c3)nc2)cc1F [Example 12, 2-fluoro-N,N-dimethyl-4-(6-((5-(2-oxopyrrolidin-1-yl)pyridin-3-yl)amino)pyridin-3-yl)benzamide]",7.00 to 8.00

# More lines, now with the values ahead:
row,pIC50,Compound
1,7.00 to 8.00,"CN(C)C(=O)c1ccc(-c2ccc(Nc3cncc(N4CCN(C)C4=O)c3)nc2)cc1 [Example 72, N,N-dimethyl-4-(6-((5-(3-methyl-2-oxoimidazolidin-1-yl)pyridin-3-yl)amino)pyridin-3-yl)benzamide]"
2,6.00 to 7.00,"CN(C)S(=O)(=O)c1ccc(-c2ccc(Nc3cccnc3)nc2)cc1 [Example 63, N,N-dimethyl-4-(6-(pyridin-3-ylamino)pyridin-3-yl)benzenesulfonamide]"
3,< 6.00,"CNC(=O)c1ccc(-c2ccc(Nc3cncc(N4CCCC4=O)c3)nc2)cc1 [Example 219, N-methyl-4-(6-((5-(2-oxopyrrolidin-1-yl)pyridin-3-yl)amino)pyridin-3-yl)benzamide]"
4,8.00 to 9.00,"CC(=O)N1CCOc2ncc(Nc3ccc(-c4ccc(C(=O)N(C)C)cc4)cn3)cc21 [Example 43, 4-(6-((1-acetyl-2,3-dihydro-1H-pyrido[2,3-b][1,4]oxazin-7-yl)amino)pyridin-3-yl)-N,N-dimethylbenzamide]"
5,6.00 to 7.00,"CC(C)[C@@H]1NC(=O)N(c2cncc(Nc3ccc(-c4ccc(C(=O)N(C)C)cc4)cn3)c2)C1=O [Example 57, (S)-4-(6-((5-(4-isopropyl-2,5-dioxoimidazolidin-1-yl)pyridin-3-yl)amino)pyridin-3-yl)-N,N-dimethylbenzamide]"
6,6.00 to 7.00,"Cn1cnnc1-c1ccc(-c2ccc(Nc3cccnc3)nc2)cc1 [Example 65, 5-(4-(4-methyl-4H-1,2,4-triazol-3-yl)phenyl)-N-(pyridin-3-yl)pyridin-2-amine]"
7,7.00 to 8.00,"CN(C)C(=O)c1ccc(-c2ccc(Nc3cncc(N4Cc5ccccc5C4=O)c3)nc2)cc1 [Example 53, N,N-dimethyl-4-(6-((5-(1-oxoisoindolin-2-yl)pyridin-3-yl)amino)pyridin-3-yl)benzamide]"
8,7.00 to 8.00,"CN(C)C(=O)c1ccc(-c2ccc(Nc3cnc4c(c3)N(S(C)(=O)=O)CCO4)nc2)cc1 [Example 217, N,N-dimethyl-4-(6-((1-(methylsulfonyl)-2,3-dihydro-1H-pyrido[2,3-b][1,4]oxazin-7-yl)amino)pyridin-3-yl)bnzamide]"
9,6.00 to 7.00,"CN(Cc1ccco1)C(=O)c1ccc(-c2ccc(Nc3cccnc3)nc2)cc1 [Example 69, N-(furan-2-ylmethyl)-N-methyl-4-(6-(pyridin-3-ylamino)pyridin-3-yl)benzamide]"
10,8.00 to 9.00,"CN(C)C(=O)c1ccc(-c2ccc(Nc3cncc(N4CCN(Cc5cccnc5)C4=O)c3)nc2)cc1 [Example 76, N,N-dimethyl-4-(6-((5-(2-oxo-3-(pyridin-3-ylmethyl)imidazolidin-1-yl)pyridin-3-yl)amino)pyridin-3-yl)benzamide]"
11,< 6.00,"CN(C)C(=O)c1ccc(-c2ccc(Nc3ccc(=O)n(Cc4ccccc4)c3)nc2)cc1 [Example 54, 4-(6-((1-benzyl-6-oxo-1,6-dihydropyridin-3-yl)amino)pyridin-3-yl)-N,N-dimethylbenzamide]"
12,7.00 to 8.00,"CN(C)C(=O)c1ccc(-c2ccc(Nc3cncc(N4CCN(CC5CC5)C4=O)c3)nc2)cc1 [Example 79, 4-(6-((5-(3-(cyclopropylmethyl)-2-oxoimidazolidin-1-yl)pyridin-3-yl)amino)pyridin-3-yl)-N,N-dimethylbenzamide]"

# Reference: patent publication US11667651B2, “Aminopyridine derivatives as phosphatidylinositol phosphate kinase inhibitors” (HiberCell, Inc., priority 2017, dated 2023)
